What was measured:
Papain induced emphysema = conditions: hamster; cited from earlier work
papain = conditions: cited from earlier work
[1] = tested on: trypsin, chymotrypsin, plasmin, kallikrein, elastase, thrombin and a protease from Aspergillus oryzae; conditions: cited from earlier work
[2] = tested on: elastase-induced emphysema (Porcine pancreatic elastase); assay: Elastase-Induced Emphysema in the Hamster; type: in vivo, Male Syrian hamsters; conditions: for Lm, Mean ± S.E.: *P<0.05 versus elastase 0.1 mg i.tr. group
papain-induced emphysema = assay: Papain-Induced Emphysema in the Hamster; type: in vivo, Male Syrian hamsters; conditions: for I.S.A.3 (internal surface area), Mean ± S.E. / Lm (mean linear intercept), Mean ± S.E.: *p<0.05 versus saline i.tr. + papain aerosol group
Description: In view of the test results, infra, the compounds of formula I, supra, are inhibitors of elastase and may be used to treat emphysema and other disorders which may be treated with elastase inhibitors, such as rheumatoid arthritis. The test procedure described below for papain-induced emphysema in the hamster is representative of recognized procedures used to experimentally papain-induce emphysema in the hamster such as that of Goldring et al. "Sequential Anatomic Changes in Lungs Exposed to Papain and other Proteolytic Enzymes" pages 389-410 in Pulmonary Emphysema and Proteolysis, edited by C. Mittman, Academic Press, Inc., New York and London, 1972.
Male Syrian hamsters in the weight range of 70-90 g were used. Food and water was allowed ad libitum except in the exposure chamber. The animals were anesthetized with pentobarbital 60 mg/kg intraperitoneally (i.p.) and saline (control) or 2-(2-furoyl)-saccharin suspended in distilled water in doses of 0.3, 1 and 3 mg was given intratracheally (i.tr.) through a slightly bent capillary tube (Kimax-51 No. 34500). […] Approximately 40 minutes later the animals were exposed to an aerosol of distilled water or 3% papain (Matheson, Coleman and Bell) for 3 hours. The aerosol was generated by two nebulizers (De Vilbiss 40) attached to the sides of a 28 liter chamber and operated at a pressure of 10 lbs. p.s.i. During this period 80-100 ml of solution was used.
Seven days after the exposure the animals were sacrificed with an overdose of pentobarbital, exanguinated by cutting the renal arteries and the lungs were excised, weighed and placed in a cylindrical 0.45 liter plethysmograph with the trachea tied to a conducting tube. The latter was connected to a respiratory pump (E & M Inst. Co., Houston, Tex.) modified to provide static inflation and deflation of the lungs. Transpulmonary pressure was recorded on the abcissa of a Honeywell 530 x-y recorder through a Grass volumetric pressure transducer (PT 5A). Changes in lung volume were recorded on the ordinate of a spirometer (10 ml capacity) connected to a Harvard linear motion transducer.
The specific static compliance (SSC) of the lungs was determined as follows: the lungs were inflated to a pressure of 20 cm H2 O and then deflated at 30 second intervals by steps of 5 cm H2 O pressure. The procedure was repeated and the second pressure volume defation curve was used for analysis. SSC was then calculated according to the formula ΔV/ΔP×W, where ΔV represents change in lung volume (ml) following change in pressure (ΔP) from 5 to 0 cm H2 O, and W is the lung wet weight (g).
Subsequently, the lungs were degassed and fixed intratracheally with formalin at a constant pressure of 15 cm H2 O for at least 48 hours and then dehydrated at the same pressure. All lungs were cleared in toluene, embedded under vacuum in parafin and each pair was blocked together. Two laterosagittal sections (6μ) of each lung were made and stained with hematoxylin and eosin and the extent of emphysematous lesions was quantitatively estimated by measuring the average intra-alveolar distance (mean linear intercept of Lm). A total of 20 random histologic fields were evaluated both vertically and horizontally and subsequently corrected for distortion and shrinkage. The internal surface area of the lungs measured at post-fixation lung volume (V) and corrected to an arbitrary total lung volume of 3 ml (ISA3) was calculated according to the formula 4V/Lm. In all studies statistical evaluation consisted of analysis of variance and significance was taken at P≤0.05.

[3] = Elastase 0.1 mg + 0.03 mg i.tr.
[4] = Group C: 0.3 mg i.tr. + papain aerosol
[5] = Group D: 1 gm i.tr. (so in the source) + papain aerosol
[6] = Group E: 3 mg i.tr. + papain aerosol

## human α1-antitrypsin (HAAT): a glycoprotein in human serum
Papain induced emphysema
  Papain induced emphysema inhibited: inhibited
papain
  inhibition of papain: not inhibited
[1]
  inhibitory spectrum: wide inhibitory spectrum covering trypsin, chymotrypsin, plasmin, kallikrein, elastase, thrombin and a protease from Aspergillus oryzae

## O=C(c1ccco1)N1C(=O)c2ccccc2S1(=O)=O [2-(2-Furoyl)-saccharin, 2-(2-Furoyl)saccharin]
[2]; 1 mg added to elastase prior to i.tr. administration
  development of pulmonary emphysematous lesions: completely prevented the development of pulmonary emphysematous lesions
[2]; 0.03 to 0.3 mg added to elastase prior to i.tr. administration
  protective effect (histological changes): partial but statistically significant protective effect
[2]; [3]
  % inhibition of ΔLm: 48%
  ΔLm: +17 μ
  Lm, Mean ± S.E.: 96.61 ± 3.22 μ
[2]; Elastase 0.1 mg + 0.1 mg i.tr.
  % inhibition of ΔLm: 54%
  ΔLm: +15 μ
  Lm, Mean ± S.E.: 94.34 ± 4.31 μ
[2]; Elastase 0.1 mg + 0.3 mg i.tr.
  % inhibition of ΔLm: 51%
  ΔLm: +16 μ
  Lm, Mean ± S.E.: 96.27 ± 2.36 μ
[2]; Elastase 0.1 mg + 1.0 mg i.tr.
  % inhibition of ΔLm: 100%
  ΔLm: -2 μ
  Lm, Mean ± S.E.: 77.68 ± 2.54 μ
papain-induced emphysema; 0.3 mg i.tr. + papain aerosol
  % Inhibition (S.S.C.): 34%
  S.S.C. (specific static compliance) ΔV/ΔP × W, Mean ± S.E.: 0.529 ± 0.041
papain-induced emphysema; 3 mg i.tr. + papain aerosol
  % Inhibition (S.S.C.): 74%
papain-induced emphysema; 3 mg i.tr. + papain aerosol, *P<0.05 versus saline i.tr. + papain aerosol group
  S.S.C. (specific static compliance) ΔV/ΔP × W, Mean ± S.E.: 0.360 ± 0.017
papain-induced emphysema; 0.3, 1 and 3 mg i.tr., significance at P≤0.05
  Inhibition, dose relation and significance: dose related but significant only for doses of 1 and 3 mg
papain-induced emphysema; 1 gm i.tr. (so in the source) + papain aerosol
  % Inhibition (S.S.C.): 48%
papain-induced emphysema; 1 gm i.tr. (so in the source) + papain aerosol, *P<0.05 versus saline i.tr. + papain aerosol group
  S.S.C. (specific static compliance) ΔV/ΔP × W, Mean ± S.E.: 0.471 ± 0.039
papain-induced emphysema; [4]
  % inhibition (I.S.A.3): 58%
  % inhibition (Lm): 69%
  I.S.A.3 (internal surface area), Mean ± S.E.: 400 + 38 cm^2
  Lm (mean linear intercept), Mean ± S.E.: 88.44 ± 2.54 μ
papain-induced emphysema; [5]
  % inhibition (I.S.A.3): 42%
  % inhibition (Lm): 59%
  I.S.A.3 (internal surface area), Mean ± S.E.: 1344 ± 34 cm^2
  Lm (mean linear intercept), Mean ± S.E.: 90.87 ± 2.40 μ
papain-induced emphysema; [6]
  % inhibition (I.S.A.3): 65%
  % inhibition (Lm): 84%
  I.S.A.3 (internal surface area), Mean ± S.E.: 1445 ± 54 cm^2
  Lm (mean linear intercept), Mean ± S.E.: 84.39 ± 2.68 μ
papain-induced emphysema; i.tr., evaluated by both physiologic and histologic methods
  development of the emphysematous lesions: prevented the development of the emphysematous lestions
